What was measured:
DYRK1A kinase = DYRK1A kinase (Homo sapiens, UniProt Q13627); assay: DYRK1A kinase activity (Ser/Thr 18 peptide Z-lyte FRET assay); type: biochemical; conditions: recombinant DYRK1A, 30 μM ATP, one hour at room temperature;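 also: kinase activity read as coumarin/fluorescein emission ratio after development step, with unphosphorylated and phosphorylated peptide forms setting 0% and 100% controls, values from dose-response curves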
GSK3β kinase = GSK3β kinase (Homo sapiens, UniProt P49841); assay: GSK3β kinase activity (Ser/Thr 09 peptide Z-lyte FRET assay); type: biochemical; conditions: recombinant kinase, 46 μM ATP, one hour at room temperature; read-out: EC50
Method: Each compound is dissolved in DMSO as a 10 mM stock and used to prepare compound source plates. Serial dilution (1:3, 11-point dose-response curves from 10 μM to 0.0003 μM) and compound transfer was performed using the ECHO 550 (Labcyte, Sunnyvale, Calif.) into 1536-well black-walled round bottom plates (Corning).
This is a non-radioactive assay using fluorescence resonance energy transfer (FRET) between coumarin and fluorescein to detect kinase activity which is represented as ratio of coumarin emission/fluorescein emission.
The mixture is allowed to incubate with the representative compounds for one hour at room temperature. All reactions were performed in duplicate. Unphosphorylated (“0% Control”) and phosphorylated (“100% control”) forms of Ser/Thr 18 serve as control reactions.
After incubation, diluted Development Buffer is added to the reaction and allowed to further incubate for one hour at room temperature.
Dose-response curves are generated and inhibitory concentration (IC50) values are calculated using non-linear regression curve fit in the Dotmatics' Studies Software (Bishops Stortford, UK).

[1] = system: secreted cytokines TNFα, IL-6 and KC-GRO; assay: Secreted cytokines in Lipopolysaccharide-stimulated BV-2 cells (Table 9 does not say which cytokine); type: cell-based, mouse; conditions: Mus musculus, BV-2, 5 h; read-out: EC50
[2] = system: SW480 colon carcinoma cells; assay: Cell viability assay (CellTiter-Glo); conditions: Homo sapiens; for EC50: SW480, 96 h; for inhibition at 10 µM: SW480, read-out: percent inhibition at 10 μM
[3] = system: Wnt-responsive Sp5-Luc reporter in SW480 colon carcinoma cells; assay: Screening assay for Wnt activity (Sp5-Luc reporter gene assay); conditions: Homo sapiens; for EC50: SW480; for inhibition at 10 µM: SW480, read-out: percent inhibition at 10 μM
IL-6 = IL-6 inhibition in LPS-stimulated human peripheral blood mononuclear cells (HTRF); conditions: Homo sapiens, PBMC; for EC50: 22 h; for inhibition at 10 µM: read-out: percentage in parentheses after EC50 >10
Method: Each compound was dissolved in DMSO (Catalog # D8418-100 ml, Sigma-Aldrich, St. Louis, Mo.) as a 10 mM stock and used to prepare compound source plates. […] After 22 hour incubation, a mixture of anti-IL6 XL665 and anti-IL-6 Cryptate diluted in reconstitution buffer (Catalog #62IL6PEC, Cisbio Inc., Bedford, Mass.) was added to each well. […] All samples were processed in duplicate. […] EC50 was determined using software generated by Dotmatics Limited (Windhill Bishops Stortford Herts, UK) using the Levenberg-Marquardt 4 parameter fitting procedure with finite different gradients.

[4] = system: α-smooth muscle actin (aSMA) positive LL29 cells; assay: Inhibition of the fibrotic process: αSMA staining in TGF-β1 treated LL29 fibroblasts from IPF patients; conditions: Homo sapiens, Fibroblast; for EC50: 96 h

Sequence of GSK3β kinase (P49841 whole entry): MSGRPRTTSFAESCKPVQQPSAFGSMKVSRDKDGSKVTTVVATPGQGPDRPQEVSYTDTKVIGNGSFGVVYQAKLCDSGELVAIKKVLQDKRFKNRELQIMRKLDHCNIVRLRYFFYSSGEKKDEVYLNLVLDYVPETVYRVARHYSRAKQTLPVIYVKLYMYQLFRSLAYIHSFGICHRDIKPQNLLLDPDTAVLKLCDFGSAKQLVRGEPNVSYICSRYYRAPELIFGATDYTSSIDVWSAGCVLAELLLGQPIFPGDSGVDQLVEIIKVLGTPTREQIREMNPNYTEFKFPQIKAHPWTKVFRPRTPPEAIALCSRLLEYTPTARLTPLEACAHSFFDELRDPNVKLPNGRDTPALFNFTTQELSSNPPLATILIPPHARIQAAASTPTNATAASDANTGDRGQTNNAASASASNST

Structure (SMILES) | EC50 (DYRK1A kinase) [nM] | EC50 (GSK3β kinase) [nM] | EC50 [1] [nM] | EC50 [2] [nM] | EC50 [3] [nM] | EC50 (IL-6) [nM] | EC50 [4] [nM] | inhibition at 10 µM (IL-6) [%] | inhibition at 10 µM [2] [%] | inhibition at 10 µM [3] [%] | inhibition at 10 µM ([4]; read-out: percentage in parentheses after EC50 >10) [%]
CN1CCC(n2cc(C(=O)Nc3cc4nc(-c5cnn(C)c5)ccc4cn3)cn2)CC1 [Compound 229, N-(2-(1-Methyl-1H-pyrazol-4-yl)-1,6-naphthyridin-7-yl)-1-(1-methylpiperidin-4-yl)-1H-pyrazole-4-carboxamide] | 11 | 2900 | 62 | 122 | 90 | 859 | 318 |  |  |  | 
CC(C)OC(=O)N1CCC(n2cc(C(=O)Nc3cc4nc(-c5cnn(C)c5)ccc4cn3)cn2)CC1 [Compound 234, Isopropyl 4-(4-((2-(1-methyl-1H-pyrazol-4-yl)-1,6-naphthyridin-7-yl)carbamoyl)-1H-pyrazol-1-yl)piperidine-1-carboxylate] | 4 | 2250 | 26 | 229 | 124 | 1890 | 329 |  |  |  | 
Cn1ncc(-c2ccc3cnc(NC(=O)c4ccnc(N5CCOCC5)c4)cc3n2)c1CN1CCOCC1 [Compound 314, N-(2-(1-Methyl-5-(morpholinomethyl)-1H-pyrazol-4-yl)-1,6-naphthyridin-7-yl)-2-morpholinoisonicotinamide] | 8 | 2610 | 138 | 441 | 368 | > 10000 | 989 | 47.6 |  |  | 
CN(C)C1CCN(c2cc(C(=O)Nc3cc4nc(-c5cn(C)nn5)ccc4cn3)ccn2)CC1 [Compound 376, 2-(4-(Dimethylamino)piperidin-1-yl)-N-(2-(1-methyl-1H-1,2,3-triazol-4-yl)-1,6-naphthyridin-7-yl)isonicotinamide] | 19 | 665 | 1700 | 1510 | 3420 | 7960 | 3480 |  |  |  | 
CN1CCCN(c2cc(C(=O)Nc3cc4nc(-c5cn(C)nn5)ccc4cn3)ccn2)CC1 [Compound 379, 2-(4-Methyl-1,4-diazepan-1-yl)-N-(2-(1-methyl-1H-1,2,3-triazol-4-yl)-1,6-naphthyridin-7-yl)isonicotinamide] | 11 | 359 | 734 | 1340 | 1600 | 2080 | 2140 |  |  |  | 
CC(C)OCCC(=O)Nc1cc2nc(-c3cncn3C)ccc2cn1 [Compound 416, 3-Isopropoxy-N-(2-(1-methyl-1H-imidazol-5-yl)-1,6-naphthyridin-7-yl) propanamide] | 31 | 49 | 3300 | > 10000 | 386 | 5760 | 355 |  | 52.1 |  | 
CC(F)(F)CN1CCC(C(=O)Nc2cc3nc(-c4cnco4)ccc3cn2)CC1 [Compound 540, 1-(2,2-Difluoropropyl)-N-(2-(oxazol-5-yl)-1,6-naphthyridin-7-yl)piperidine-4-carboxamide] | 22 | 644 | ≥ 10000 | > 10000 | > 10000 | > 10000 | > 10000 | 3.9 | 5.3 | 11.8 | 50
O=C(Nc1cc2nc(-c3cnco3)ccc2cn1)c1ccncc1 [Compound 592, N-(2-(Oxazol-5-yl)-1,6-naphthyridin-7-yl)isonicotinamide] | 29 | > 10000 | 449 | > 10000 | > 10000 | > 10000 | 9 | 25.3 | 11.7 | 5 | 
O=C(Nc1cc2nc(-c3cncs3)ccc2cn1)c1ccc(OC2CCNCC2)cc1 [Compound 624, 4-(Piperidin-4-yloxy)-N-(2-(thiazol-5-yl)-1,6-naphthyridin-7-yl)benzamide] | 3 | 2930 | 8800 | 694 | 750 | 3080 | 491 |  |  |  | 
